Data reported in patent US20250122160A1, “PROTEIN TYROSINE PHOSPHATASE INHIBITORS AND METHODS OF USE THEREOF” (Calico Life Sciences LLC, priority 0001, published 2025).

Key:
[1] = target: T1, His tagged PTPN2 (TC45) protein (Homo sapiens, UniProt P17706); test: Mobility shift assay (MSA) to determine potency of PTPN2 inhibitors; type: biochemical; conditions: 0.5 nM enzyme, 2 μM substrate
T1 construct: made in house
T1 sequence (P17706 with tags, fused parts or gaps isoform P17706-2): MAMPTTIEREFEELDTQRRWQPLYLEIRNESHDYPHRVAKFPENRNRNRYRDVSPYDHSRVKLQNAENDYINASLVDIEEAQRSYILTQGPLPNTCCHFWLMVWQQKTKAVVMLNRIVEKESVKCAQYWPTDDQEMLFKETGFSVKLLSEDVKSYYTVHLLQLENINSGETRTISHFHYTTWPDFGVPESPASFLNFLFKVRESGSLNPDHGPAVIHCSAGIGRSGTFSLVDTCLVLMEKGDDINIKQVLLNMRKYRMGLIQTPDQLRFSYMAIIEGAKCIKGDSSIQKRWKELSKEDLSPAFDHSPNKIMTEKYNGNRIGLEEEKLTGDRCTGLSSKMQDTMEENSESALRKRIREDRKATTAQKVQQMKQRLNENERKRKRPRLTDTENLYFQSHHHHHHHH
Description: Compound activity was determined using in house His tagged PTPN2 (TC45) protein (SEQ ID NO: 1) in an in vitro enzymatic reaction. The enzymatic assay used to determine activity was a mobility shift assay using a LabChip EZ Reader by Caliper Life Sciences. The enzymatic reaction was carried out in assay buffer (50 mM HEPES pH 7.5, 1 mM EGTA, 10 mM EDTA, 0.01% Tween® 20, and 2 mM DTT). The compounds were dispensed on a white 384 well ProxiPlate™ (PerkinElmer Catalog #6008289) plate using the Labcyte Echo at varying concentrations (12 point, 1:3 dilution). The enzyme (at 0.5 nM) was incubated with compound for 10 minutes at room temperature. Then the substrate (phosphorylated insulin receptor probe sequence: ((OG488)-(NH—CH2—CH2—O—CH2—CH2—O—CH2—CO)-T-R-D-I-(PY)-E-T-D-Y—Y—R—K—K—NH2) (SEQ ID NO: 2) was added at 2 μM to the plates and incubated for another 10 minutes at room temperature. Finally, a quench solution (water and 4-bromo-3-(2-oxo-2-propoxyethoxy)-5-(3-{[1-(phenylmethanesulfonyl)piperidin-4-yl]amino}phenyl)thiophene-2-carboxylic acid) was added to the plates, which were then run on the EZ Reader (excitation 488 nm, emission 530 nm) to measure % conversion (the amount of phosphorylated substrate which was de-phosphorylated by PTPN2). […] The % inhibition was then used to calculate the IC50 values.

[2] = target: T2, His tagged full-length PTPN1 protein (Homo sapiens, UniProt P18031); test: Mobility shift assay (MSA) to determine potency of PTPN1 inhibitors; type: biochemical; conditions: 0.5 nM enzyme, 2 μM substrate
T2 construct: made in house
T2 sequence (P18031 with tags, fused parts or gaps): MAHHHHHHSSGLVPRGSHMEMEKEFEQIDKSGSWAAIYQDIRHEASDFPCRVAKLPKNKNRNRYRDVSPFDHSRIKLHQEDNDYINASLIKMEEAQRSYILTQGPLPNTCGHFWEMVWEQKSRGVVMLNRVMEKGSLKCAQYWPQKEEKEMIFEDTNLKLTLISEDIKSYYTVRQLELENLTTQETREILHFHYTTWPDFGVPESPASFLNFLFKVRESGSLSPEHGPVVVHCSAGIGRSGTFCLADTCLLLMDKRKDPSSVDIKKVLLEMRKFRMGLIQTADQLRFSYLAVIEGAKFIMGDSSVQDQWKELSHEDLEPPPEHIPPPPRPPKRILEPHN
Description: Compound activity was determined using in house His tagged full-length PTPN1 protein (SEQ ID NO: 3) in an in vitro enzymatic reaction. The enzymatic assay used to determine activity is a mobility shift assay using a LabChip EZ Reader by Caliper Life Sciences. The enzymatic reaction was carried out in assay buffer (50 mM HEPES pH 7.5, 1 mM EGTA, 10 mM EDTA. 0.01% Tween® 20, and 2 mM DTT). The compounds were dispensed on a white 384 well ProxiPlate™ (PerkinElmer Cat #6008289) plate using a Labcyte Echo® liquid handler at varying concentrations (12 point, 1:3 dilution). The enzyme (at 0.5 nM) was incubated with compound for 10 minutes at room temperature. Then the substrate (phosphorylated insulin receptor probe sequence: ((OG488)-(NH—CH2—CH2—O—CH2—CH2—O—CH2—CO)-T-R-D-I-(PY)-E-T-D-Y—Y—R—K—K—NH2) (SEQ ID NO: 2) was added at 2 μM to the plates and incubated for another 10 minutes at room temperature. Finally, a quench solution (water and 4-bromo-3-(2-oxo-2-propoxyethoxy)-5-(3-{[1-(phenylmethanesulfonyl)piperidin-4-yl]amino}phenyl)thiophene-2-carboxylic acid) was added to the plates, which were then run on the EZ Reader (excitation 488 nm, emission 530 nm) to measure % conversion (the amount of phosphorylated substrate which was de-phosphorylated by PTPN1). […] The % inhibition was then used to calculate the IC50 values.

| SMILES | IC50 [1] [nM] | IC50 [2] [nM] |
| --- | --- | --- |
| CC(C)CCC(=O)N1CCc2cc(O)c(N3CC(=O)NS3(=O)=O)c(F)c2C1 [Compound 144] | 1 to 10 | 10 to 100 |
| CC(C)CCCN1CCc2cc(O)c(N3CC(=O)NS3(=O)=O)c(F)c2C1 [Compound 145] | 10 to 100 | 10 to 100 |
| O=C1CN(c2c(O)cc3c(c2F)CN(CCCCC(F)(F)F)CC3)S(=O)(=O)N1 [Compound 153, 5-[8-fluoro-6-hydroxy-2-(5,5,5-trifluoropentyl)-1,2,3,4-tetrahydroisoquinolin-7-yl]-1λ^6,2,5-thiadiazolidine-1,1,3-trione] | 10 to 100 | 10 to 100 |
| O=C1CN(c2c(O)cc3c(c2F)CC(NCc2ccccn2)CC3)S(=O)(=O)N1 (centres unmarked) [Compound 155] | 10 to 100 | 10 to 100 |
| CCCCC(=N)N1CCc2cc(O)c(N3CC(=O)NS3(=O)=O)c(F)c2C1 [Compound 158] | 10 to 100 | > 100 |
| O=C1CN(c2c(O)cc3c(c2F)CN(CCCC2CC2)CC3)S(=O)(=O)N1 [Compound 159] | 10 to 100 | 10 to 100 |
| O=C1CN(c2c(O)cc3c(c2F)CN(C2CC4(CNC4)C2)CC3)S(=O)(=O)N1 [Compound 160] | 10 to 100 | 10 to 100 |
| O=C1CN(c2c(O)cc3c(c2F)CN(CCCCCC(F)(F)F)CC3)S(=O)(=O)N1 [Compound 161] | 1 to 10 | 10 to 100 |
| O=C1CN(c2c(O)cc3c(c2F)CN(CC2CC(F)(F)C2)CC3)S(=O)(=O)N1 [Compound 162] | 1 to 10 | 10 to 100 |
| O=C1CN(c2c(O)cc3c(c2F)CN(C2CNC2)CC3)S(=O)(=O)N1 [Compound 163] | 10 to 100 | > 100 |
| CC(C)NCCN1CCc2cc(O)c(N3CC(=O)NS3(=O)=O)c(F)c2C1 [Compound 164] | 10 to 100 | > 100 |
| O=C1CN(c2c(O)cc3c(c2F)CN(CC2CNC2)CC3)S(=O)(=O)N1 [Compound 165] | 10 to 100 | 10 to 100 |
| O=C1CN(c2c(O)cc3c(c2F)CN(CC2CC4(CC4)C2)CC3)S(=O)(=O)N1 [Compound 168] | 10 to 100 | 10 to 100 |
| CC(C)(O)CCN1CCc2cc(O)c(N3CC(=O)NS3(=O)=O)c(F)c2C1 [Compound 170] | 10 to 100 | > 100 |
| O=C1CN(c2c(O)cc3c(c2F)CN(CCC2CCCCC2)CC3)S(=O)(=O)N1 [Compound 179] | 10 to 100 | 10 to 100 |
| CC(C)C1CN(C2CCc3cc(O)c(N4CC(=O)NS4(=O)=O)c(F)c3C2)CCO1 (centres unmarked) [Compound 181] | 1 to 10 | 1 to 10 |
| O=C1CN(c2c(O)cc3c(c2F)CN(Cc2ccccn2)CC3)S(=O)(=O)N1 [Compound 184] | > 100 | > 100 |
| O=C1CN(c2c(O)cc3c(c2F)CN(c2ccccn2)CC3)S(=O)(=O)N1 [Compound 191] | 10 to 100 | 10 to 100 |
| O=C1CN(c2c(O)cc3c(c2F)CN(CCC2CC(F)(F)C2)CC3)S(=O)(=O)N1 [Compound 192] | 10 to 100 | 10 to 100 |
| O=C1CN(c2c(O)cc3c(c2F)CN(CCN2CCCC2)CC3)S(=O)(=O)N1 [Compound 193] | > 100 | 10 to 100 |
| Cc1n[nH]c(C)c1CCN1CCc2cc(O)c(N3CC(=O)NS3(=O)=O)c(F)c2C1 [Compound 194] | 1 to 10 | 1 to 10 |
| O=C1CN(c2c(O)cc3c(c2F)CN(CCCC2CCOCC2)CC3)S(=O)(=O)N1 [Compound 196] | 10 to 100 | 10 to 100 |
| N[C@@H]1CCc2cc(O)c(N3CC(=O)NS3(=O)=O)c(F)c2C1 [Compound 198] | 10 to 100 | > 100 |
| O=C1CN(c2c(O)cc3c(c2F)C[C@H](NCCC2CCCC2)CC3)S(=O)(=O)N1 [Compound 200, 5-{(7R)-7-[(2-cyclopentylethyl)amino]-1-fluoro-3-hydroxy-5,6,7,8-tetrahydronaphthalen-2-yl}-1λ^6,2,5-thiadiazolidine-1,1,3-trione] | < 1 | < 1 |
| O=C1CN(c2c(O)cc3c(c2F)C[C@H](NCCC2CCC2)CC3)S(=O)(=O)N1 [Compound 201] | < 1 | < 1 |
